Measurements from patent US5556744A, “Methods and compositions for diagnosing and treating certain HIV infected patients” (The Trustees of the University of Pennsylvania, priority 1994, dated 1996).

Tests used:
[1] = tested on: maternal sera (antibodies); test: ELISA peptide-binding of maternal sera (Example 6); set-up: species or system human; conditions: for Number of Non-Transmitters which bound to peptide / Percent of Non-Transmitters which bound to peptide: N = 12; for Number of Transmitters which bound to peptide / Percent of Transmitters which bound to peptide: N = 4
Excerpt: A total of 86 maternal sera samples obtained from patients of the Hospital of the University of Pennsylvania during the third trimester of pregnancy were used in this study 58 (67%) were non-transmitters and 28 (33%) were transmitters. This is approximately consistent with the national average (i.e. a rate of transmission between 25-30%). Transmission status was based upon serological or molecular diagnosis of children (at an age of greater than 15 months) born to these mothers. Because of the constraints on the volume of serum available for many of these samples, not all sera were analyzed with all the peptides. However, each sera sample was run with at least 40 peptides.
These peptides are of an average length of 16 amino acids and covered the entire external as well as the transmembrane glycoprotein of HIV-1. Peptide binding was analyzed by ELISA essentially as described in Example 3.
The results of one study, using some of the peptides identified above among others, is provided in Table 12, which illustrates the number and percent of non-transmitters which bound to the tested peptide. The percentage designation refers to the percentage of sera samples which bound to a particular peptide. A value of greater than 0% means that at least one of the samples bound to the particular peptides.

[2] = tested on: maternal HIV+ sera (antibodies); test: RIA / ELISA binding of maternal HIV+ sera to gp120 and gp41 peptides (Example 3); set-up: species or system human
Outline: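 Maternal sera, diluted 1:50 and 1:500, were bound overnight at 4°C to peptides immobilized at 10 μg/ml (pH 9.6 carbonate) and blocked with 1% BSA. Read-out was ¹²⁵I-labelled anti-human IgG counts or HRP-TMB OD450. Signal with peptide minus without was expressed relative to seronegative serum.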

Q: Which results are given for VSLKCTDLKNDTNTN [Peptide 97]?
A: Number of Non-Transmitters which bound to peptide [1]: 2; Percent of Non-Transmitters which bound to peptide [1]: 16.7%; Number of Transmitters which bound to peptide [1]: 0; Percent of Transmitters which bound to peptide [1]: 0%; Binding of maternal sera to peptide (in words) ([2]; Example 3): No binding; Binding of maternal HIV+ serum to peptide (sera/NHS ratio) ([2]; Serum No. 1, Non-Transmission Group): - (specific OD450 or cpm of sera sample binding to peptide divided by the specific OD450 or cpm of NHS sample binding to peptide, which value is less than 2); Binding of maternal HIV+ serum to peptide (sera/NHS ratio) ([2]; Serum No. 2, Non-Transmission Group): - (specific OD450 or cpm of sera sample binding to peptide divided by the specific OD450 or cpm of NHS sample binding to peptide, which value is less than 2); Binding of maternal HIV+ serum to peptide (sera/NHS ratio) ([2]; Serum No. 3, Non-Transmission Group): - (specific OD450 or cpm of sera sample binding to peptide divided by the specific OD450 or cpm of NHS sample binding to peptide, which value is less than 2); Binding of maternal HIV+ serum to peptide (sera/NHS ratio) ([2]; Serum No. 4, Transmission Group): - (specific OD450 or cpm of sera sample binding to peptide divided by the specific OD450 or cpm of NHS sample binding to peptide, which value is less than 2); Binding of maternal HIV+ serum to peptide (sera/NHS ratio) ([2]; Serum No. 5, Transmission Group): - (specific OD450 or cpm of sera sample binding to peptide divided by the specific OD450 or cpm of NHS sample binding to peptide, which value is less than 2); Binding of maternal HIV+ serum to peptide (sera/NHS ratio) ([2]; Serum No. 6, Non-Transmission Group): - (specific OD450 or cpm of sera sample binding to peptide divided by the specific OD450 or cpm of NHS sample binding to peptide, which value is less than 2); Binding of maternal HIV+ serum to peptide (sera/NHS ratio) ([2]; Serum No. 7, Non-Transmission Group): - (specific OD450 or cpm of sera sample binding to peptide divided by the specific OD450 or cpm of NHS sample binding to peptide, which value is less than 2); Binding of maternal HIV+ serum to peptide (sera/NHS ratio) ([2]; Serum No. 8, Non-Transmission Group): - (specific OD450 or cpm of sera sample binding to peptide divided by the specific OD450 or cpm of NHS sample binding to peptide, which value is less than 2); Binding of maternal HIV+ serum to peptide (sera/NHS ratio) ([2]; Serum No. 9, Non-Transmission Group): - (specific OD450 or cpm of sera sample binding to peptide divided by the specific OD450 or cpm of NHS sample binding to peptide, which value is less than 2); Binding of maternal HIV+ serum to peptide (sera/NHS ratio) ([2]; Serum No. 10, Transmission Group): - (specific OD450 or cpm of sera sample binding to peptide divided by the specific OD450 or cpm of NHS sample binding to peptide, which value is less than 2); Binding of maternal HIV+ serum to peptide (sera/NHS ratio) ([2]; Serum No. 11, Non-Transmission Group): - (specific OD450 or cpm of sera sample binding to peptide divided by the specific OD450 or cpm of NHS sample binding to peptide, which value is less than 2); Binding of maternal HIV+ serum to peptide (sera/NHS ratio) ([2]; Serum No. 12, Non-Transmission Group): - (specific OD450 or cpm of sera sample binding to peptide divided by the specific OD450 or cpm of NHS sample binding to peptide, which value is less than 2); Binding of maternal HIV+ serum to peptide (sera/NHS ratio) ([2]; Serum No. 13, Transmission Group): - (specific OD450 or cpm of sera sample binding to peptide divided by the specific OD450 or cpm of NHS sample binding to peptide, which value is less than 2); Binding of maternal HIV+ serum to peptide (sera/NHS ratio) ([2]; Serum No. 14, Transmission Group): - (specific OD450 or cpm of sera sample binding to peptide divided by the specific OD450 or cpm of NHS sample binding to peptide, which value is less than 2); Binding of maternal HIV+ serum to peptide (sera/NHS ratio) ([2]; Serum No. 15, Transmission Group): - (specific OD450 or cpm of sera sample binding to peptide divided by the specific OD450 or cpm of NHS sample binding to peptide, which value is less than 2); Binding of maternal HIV+ serum to peptide (sera/NHS ratio) ([2]; Serum No. 16, Non-Transmission Group): - (specific OD450 or cpm of sera sample binding to peptide divided by the specific OD450 or cpm of NHS sample binding to peptide, which value is less than 2); Binding of maternal HIV+ serum to peptide (sera/NHS ratio) ([2]; Serum No. 17, Non-Transmission Group): - (specific OD450 or cpm of sera sample binding to peptide divided by the specific OD450 or cpm of NHS sample binding to peptide, which value is less than 2); Binding of maternal HIV+ serum to peptide (sera/NHS ratio) ([2]; Serum No. 18, Non-Transmission Group): - (specific OD450 or cpm of sera sample binding to peptide divided by the specific OD450 or cpm of NHS sample binding to peptide, which value is less than 2); Binding of maternal HIV+ serum to peptide (sera/NHS ratio) ([2]; Serum No. 19, Transmission Group): - (specific OD450 or cpm of sera sample binding to peptide divided by the specific OD450 or cpm of NHS sample binding to peptide, which value is less than 2); Binding of maternal HIV+ serum to peptide (sera/NHS ratio) ([2]; Serum No. 20, Non-Transmission Group): - (specific OD450 or cpm of sera sample binding to peptide divided by the specific OD450 or cpm of NHS sample binding to peptide, which value is less than 2)

Q: How did the “Number of Non-Transmitters which bound to peptide” value [1] turn out when “A733: gp41 peptide, amino acids 728-745, HIV strain IIIB, SEQ ID NO: 174 (DRPEGIEEEGGERDRDRS) [Peptide A733]” was run?
A: Its value is 1.

Q: What about the “Percent of Non-Transmitters which bound to peptide” value [1] of the same substance?
A: The value was 8.3%.

Q: What about the “Number of Transmitters which bound to peptide” value [1] of the same substance?
A: The value was 0.

Q: What about the “Percent of Transmitters which bound to peptide” value [1] of the same substance?
A: The value was 0%.

Q: “BS-1: gp120 peptide, amino acids 319-329, SEQ ID NO:114 (TIGKIGNMRQA)” was tested. Which “Number of Non-Transmitters which bound to peptide” value [1] did it give?
A: Its value is 0.

Q: What about the “Percent of Non-Transmitters which bound to peptide” value [1] of the same substance?
A: Its value is 0%.

Q: What about the “Number of Transmitters which bound to peptide” value [1] of the same substance?
A: The value was 0.

Q: What about the “Percent of Transmitters which bound to peptide” value [1] of the same substance?
A: Its value is 0%.

Q: “KQIINMWQEVGKAMYA/CTRPNNNTRKSIRIQRGPG (KQIINMWQEVGKAMYACTRPNNNTRKSIRIQRGPG) [1/SP10IIIB]” was tested. Which “Correlation of peptide binding with non-transmitters (in words)” value ([1]; Example 6) did it give?
A: The value was “selectively correlate with non-transmitters”.

Q: What about the “Fold binding, non-transmitters vs transmitters” value ([1]; Example 6) of the same substance?
A: The value was “at least two fold greater”.

Q: What about the “Number of Non-Transmitters which bound to peptide” value [1] of the same substance?
A: The value was 8.

Q: What about the “Percent of Non-Transmitters which bound to peptide” value [1] of the same substance?
A: Its value is 66.7%.

Q: And the “Percent of Non-Transmitters which bound to peptide” value ([1]; listed as 1/SP10 IIIB)?
A: The value was “greater than 50%”.

Q: What about the “Number of Transmitters which bound to peptide” value [1] of the same substance?
A: Its value is 1.

Q: What about the “Percent of Transmitters which bound to peptide” value [1] of the same substance?
A: The value was 25%.

Q: Which “Number of Non-Transmitters which bound to peptide” value [1] does the source give for “A487: gp120 peptide, amino acids 481-503, HIV strain IIIB, SEQ ID NO: 132 (ELYKYKVVKIEPLGVAPTKAKRR) [Peptide A487]” here?
A: The value was 1.

Q: And the “Percent of Non-Transmitters which bound to peptide” value [1]?
A: Its value is 8.3%.

Q: What about the “Number of Transmitters which bound to peptide” value [1] of the same substance?
A: The value was 0.

Q: And the “Percent of Transmitters which bound to peptide” value [1]?
A: Its value is 0%.

Q: Which results are given for “41-13: gp41 peptide, amino acids 616-632, HIV strain BRU, SEQ ID NO: 153 (NASWSNKSLEQIWNNMT) [Peptide 41-13]”?
A: Number of Non-Transmitters which bound to peptide [1]: 0; Percent of Non-Transmitters which bound to peptide [1]: 0%; Number of Transmitters which bound to peptide [1]: 0; Percent of Transmitters which bound to peptide [1]: 0%

Q: How did the “Number of Non-Transmitters which bound to peptide” value [1] turn out when “p41-20: gp41 peptide, amino acids 644-663, HIV strain IIIB, SEQ ID NO: 154 (SLIEESQNQQEKNEQELLEL)” was run?
A: The value was 2.

Q: And the “Percent of Non-Transmitters which bound to peptide” value [1]?
A: Its value is 16.7%.

Q: What about the “Number of Transmitters which bound to peptide” value [1] of the same substance?
A: The value was 0.

Q: What about the “Percent of Transmitters which bound to peptide” value [1] of the same substance?
A: The value was 0%.

Q: Which “Number of Non-Transmitters which bound to peptide” value [1] does the source give for “A6939: gp120 peptide, amino acids 210-227, SEQ ID NO:108 (FEPIPIHYCAPAGFAILK) [Peptide A6939]” here?
A: The value was 0.

Q: And the “Percent of Non-Transmitters which bound to peptide” value [1]?
A: The value was 0%.

Q: What about the “Number of Transmitters which bound to peptide” value [1] of the same substance?
A: Its value is 0.

Q: And the “Percent of Transmitters which bound to peptide” value [1]?
A: Its value is 0%.

Q: For “C21E: gp120 peptide, amino acids 252-272, HIV strain MN, SEQ ID NO: 147 (CTHGIRPVVSTQLLLNGSLAE) [Peptide C21E]”, which “Number of Non-Transmitters which bound to peptide” value [1] is on record?
A: Its value is 0.

Q: And the “Percent of Non-Transmitters which bound to peptide” value [1]?
A: Its value is 0%.

Q: And the “Number of Transmitters which bound to peptide” value [1]?
A: Its value is 0.

Q: What about the “Percent of Transmitters which bound to peptide” value [1] of the same substance?
A: The value was 0%.

Q: With “A620: gp41 peptide, amino acids 615-627, HIV strain IIIB, SEQ ID NO: 172 (SNKSLEQIWNNMT) [Peptide A620]” as the substance, how does the “Number of Non-Transmitters which bound to peptide” value [1] read?
A: Its value is 1.

Q: What about the “Percent of Non-Transmitters which bound to peptide” value [1] of the same substance?
A: The value was 8.3%.

Q: What about the “Number of Transmitters which bound to peptide” value [1] of the same substance?
A: Its value is 0.

Q: What about the “Percent of Transmitters which bound to peptide” value [1] of the same substance?
A: Its value is 0%.

Q: What does the source list for “A581: gp41 peptide, amino acids 576-592, SEQ ID NO:120 (LQARILAVERYLKDQQL) [Peptide A581]”?
A: Number of Non-Transmitters which bound to peptide [1]: 2; Percent of Non-Transmitters which bound to peptide [1]: 16.7%; Number of Transmitters which bound to peptide [1]: 0; Percent of Transmitters which bound to peptide [1]: 0%
